Source: PMC2771899, “Augmentation of Reverse Transcription by Integrase through an Interaction with Host Factor, SIP1/Gemin2 Is Critical for HIV-1 Infection” (PLoS ONE, 2009)

Key:
rSIP1 = assay: Dot-blot binding of peptide to SIP1; conditions: 40 or 400 nmol peptide on nitrocellulose, rSIP1 (5 µg), anti-SIP1 antibody
[1] = system: IN-SIP1 interaction (His-IN, rSIP1); assay: Dot-blot inhibition of IN-SIP1 interaction by peptide; assay type: binding, HIV-1
[2] = biological target: T1, IN-SIP1 mediated RT activity (Homo sapiens, UniProt O14893); assay: In vitro RT assay, inhibition of IN-SIP1 mediated RT activity by peptide; assay type: biochemical, HIV-1
T1 construct: the SIP1 gene was amplified from pTRE-SIP1 (kindly provided by Dr. G. Dreyfuss) by PCR and cloned into BamHI and EcoRI sites of pGEX-6P-2; GST (N, cleaved yes); made in house; host or cells: E. coli BL21 (GST-SIP1), E. coli M15 (His-IN)
T1 sequence (O14893 1-280): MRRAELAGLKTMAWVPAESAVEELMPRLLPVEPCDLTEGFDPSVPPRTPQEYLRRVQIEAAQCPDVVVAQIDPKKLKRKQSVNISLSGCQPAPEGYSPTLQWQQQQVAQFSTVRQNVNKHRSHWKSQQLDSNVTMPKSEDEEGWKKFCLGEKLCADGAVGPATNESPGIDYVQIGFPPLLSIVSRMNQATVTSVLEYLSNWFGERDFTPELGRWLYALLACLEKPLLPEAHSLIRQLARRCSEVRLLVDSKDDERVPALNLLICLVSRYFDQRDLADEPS

[3] = system: HIVNL43-luc/VSV-G pseudotypes; assay type: cell-based, HIV-1
HIV-1 cDNA synthesis = assay type: cell-based; conditions: PMA-stimulated THP-1 cells, 100 µM peptide 16 h before and 6 h during infection; R/U5 and R/gag, 24 h post-infection
MLV cDNA synthesis = assay type: cell-based, Moloney murine leukemia virus; conditions: PMA-stimulated THP-1 cells, 100 µM peptide, MMLV vector pFB-Luc; R/U5 24 h post-infection; compared with DMSO or control peptide
[4] = system: viral entry and RT enzymatic activity; assay: Direct effect on viral entry and RT enzymatic activity; set-up: species or system HIV-1; conditions: data not shown

IN60–80: synthetic peptide corresponding to the residues of 60–80 of HIV-1 IN (IWQLDCTHLEGKVILVAVHVA; Integrase; UniProt P04585 1207-1227, looked up, fragment)
Direct binding of peptide to rSIP1 (rSIP1): efficiently bound to rSIP1 | Peptide concentration that reduces His-WT binding to SIP1 to non-specific background levels ([1]; His-IN (10 µg) on nitrocellulose, 5 µg rSIP1): About 5 µM | Interference with binding of full-length IN (His-WT) to SIP1 ([1]; His-IN (10 µg) on nitrocellulose, 5 µg rSIP1, peptide present): significantly interfered with the binding of the full-length IN (His-WT) to the SIP1 protein | Inhibitory effect on His-WT binding to SIP1 relative to IN231–251 ([1]; IN60–80 versus IN231–251): more than 10 times | IC50, inhibition of IN-SIP1 mediated RT activity ([2]; 35 fmol RT, 3.5 fmol His-IN, 50 fmol rSIP1, 42°C, 30 min, 20 µl, real-time PCR): ~10 pmoles per reaction | Effect on IN-SIP1 mediated RT activity ([2]; 35 fmol RT, 3.5 fmol His-IN, 50 fmol rSIP1, cDNA relative to control): significantly reduced the IN-SIP1 mediated RT activity in a dose-dependent manner | Inhibitory effect on IN-SIP1 mediated RT activity relative to IN231–251 ([2]; IN60–80 versus IN231–251): more than 100 times | Effect on IN-mediated RT stimulatory effect and HIV-1 replication ([2]; summary statement): specifically block IN-mediated RT stimulatory effect and HIV-1 replication | HIV-1 infectivity, % of control [3]: 20–25 % of control | Viral cDNA synthesis, % of control (HIV-1 cDNA synthesis): less than 25 % of control | Effect on MLV cDNA synthesis (MLV cDNA synthesis): no significant inhibitory effect | Direct effect on viral entry and RT enzymatic activity [4]: does not directly suppress viral entry and RT enzymatic activity
